Assays:
Format in all cases: physicochemical
[1] = Flavonoid release profile by UV-Vis spectroscopy, simulating HGF culture media changes; details: water pH 7.5, 37° C.
Method: (§1) The flavonoid release profile from coated surfaces in water media, simulating physiologic conditions (pH 7.5, 37° C.) was measured by UV-Vis spectroscopy. Implants were placed in a 96 well plate and 200 μl of water at pH 7.5 were added to each well. […] Each time, a 150 μl aliquot was withdrawn and the absorbance (λTaxifolin=290 nm, λQuercitrin=350 nm) was measured in a 96 well Elisa plate using a Biotek UV-vis plate reader spectrophotometer. The concentration of flavonoid was calculated from interpolation of data in flavonoid standard calibration curves. Two replicates were measured for each sample. Passivated Ti substrates were used as blank samples for drop casted implants. Silanized Ti substrates were used as blank for covalently linked samples.

[2] = Biomolecule release by UV-vis spectrometry after 24 h incubation in water; details: covalent linking via APTES, water pH 7.5, 37° C.
Method: The biomolecule release from functionalized implants after 24 h incubation in water at pH 7.5 and 37° C. was determined by UV-Vis spectroscopy. Implants were placed in a 96 well plate and 200 μl of water at pH 7.5 were added to each well. Samples were incubated at 37° C. during 24 h. Then, a 150 μl aliquot was withdrawn and the absorbance (λmax taxifolin=290 nm, λmax quercitrin=350 nm) was measured using a Biotek UV-vis plate reader spectrophotometer. Two sample replicates were measured.

[3] = Flavonoid release profile by UV-Vis spectroscopy, simulating hUC-MSCs culture media changes; details: water pH 7.5, 37° C.
Method: as §1

[4] = Schiff base, not reduced (experiment FL14)

O=C1c2c(O)cc(O)cc2O[C@H](c2ccc(O)c(O)c2)[C@H]1O [TX, taxifolin]
cumulative release at day one [1, 4]: 12.4 ± 4.0 nmol
released amount from 1 to 14 days [1, 4]: not significant
flavonoid released to the media after 1 h of incubation ([1]; covalently linked by Schiff base formation, not reduced (experiment FL14)): 7.9 ± 2.7 nmol
completeness of release at day 1 ([1]; drop casted substrates (experiment FL13), 6 nmol/disk taxifolin): almost complete
flavonoid released to the media after 1 h of incubation ([1]; drop casted substrates (experiment FL13), initial 6 nmol/disk taxifolin, 100 nmol/disk quercitrin): ~3.2 ± 0.4 nmol
flavonoid detected in the media ([1]; reduced Schiff base surfaces (experiment FL15), up to 14 days): No taxifolin neither quercitrin were detected
C μM, 24 h (release of flavonoid to water media) ([2]; Ti pretreat. UV, reduction step No (Schiff base)): 5.06 ± 0.59 µM
C μM, 24 h (release of flavonoid to water media) ([2]; Ti pretreat. UV, reduction step Yes (reduced Schiff base)): No det.
C μM, 24 h (release of flavonoid to water media) ([2]; Ti pretreat. passivation, reduction step No (Schiff base)): 10.22 ± 1.88 µM
C μM, 24 h (release of flavonoid to water media) ([2]; Ti pretreat. passivation, reduction step Yes (reduced Schiff base)): No det.
total amount released after 14 days ([3]; Schiff base, not reduced (experiment FL17)): 2.6 ± 0.2 nmol
total amount released to media ([3]; drop casted substrates (experiment FL16), initial 20 nmol/disk taxifolin, 50 nmol/disk quercitrin, up to 14 days): 19.7 ± 0.7 nmol
flavonoid detected in the media ([3]; reduced Schiff base surfaces (experiment FL18), up to 14 days): No taxifolin neither quercitrin were detected

Source: patent US9849212B2, “Implants for inducing soft and hard tissue integration” (NUMAT BIOMEDICAL S.L., priority 2013, dated 2017)
